For assay [1], the target named is rat orexin 1 receptor (Rattus norvegicus, UniProt P56718). The experiment in a line: Rat orexin 1 receptor radioligand binding (competitive, [3H]-SB674042, HEK293 cell preparations).
For assay [2], the target named is human orexin 1 receptor (Homo sapiens (Human), UniProt O43613). As to the kind of experiment: Human orexin 1 receptor radioligand binding (competitive, [3H]-SB674042, CHO cell preparations).
Assay [3] deals with human orexin 2 receptor (Homo sapiens (Human), UniProt O43614). The experiment in a line: Human orexin 2 receptor radioligand binding (competitive, [3H]-EMPA, HEK293 cell preparations).
The mark [4] stands for this setting: rat orexin 1 receptor, [3H]-SB674042 competition binding, read-out: rOX1 Ki (nm).
Setting [5] is: human orexin 1 receptor, [3H]-SB674042 competition binding, read-out: hOX1 Ki (nm).
Setting [6] is: human orexin 2 receptor, [3H]-EMPA competition binding, read-out: hOX2 Ki (nm).

SMILES strings stand for the structures. Like-named read-outs stand apart in the source and are kept apart here.

Data on 22 molecules can be found in US9062078B2, “Substituted 7-azabicyles and their use as orexin receptor modulators” (priority 2013, dated 2015).

A word on the Ki: it is the dissociation constant of the complex between target and ligand, obtained from inhibition or displacement.

human orexin 2 receptor, sequence (O43614 whole entry): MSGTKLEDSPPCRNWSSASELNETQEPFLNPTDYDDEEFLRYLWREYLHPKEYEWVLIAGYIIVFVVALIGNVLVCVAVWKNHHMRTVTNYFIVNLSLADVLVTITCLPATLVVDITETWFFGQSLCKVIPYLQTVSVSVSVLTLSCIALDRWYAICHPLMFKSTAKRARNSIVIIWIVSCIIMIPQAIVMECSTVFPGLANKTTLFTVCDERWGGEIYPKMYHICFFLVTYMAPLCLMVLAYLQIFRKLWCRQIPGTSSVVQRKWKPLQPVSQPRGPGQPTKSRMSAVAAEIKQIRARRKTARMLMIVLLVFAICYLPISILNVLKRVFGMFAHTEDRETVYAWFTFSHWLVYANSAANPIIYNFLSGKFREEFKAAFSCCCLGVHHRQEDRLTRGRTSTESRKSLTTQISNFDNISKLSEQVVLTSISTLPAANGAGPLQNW
human orexin 1 receptor, sequence (O43613 whole entry): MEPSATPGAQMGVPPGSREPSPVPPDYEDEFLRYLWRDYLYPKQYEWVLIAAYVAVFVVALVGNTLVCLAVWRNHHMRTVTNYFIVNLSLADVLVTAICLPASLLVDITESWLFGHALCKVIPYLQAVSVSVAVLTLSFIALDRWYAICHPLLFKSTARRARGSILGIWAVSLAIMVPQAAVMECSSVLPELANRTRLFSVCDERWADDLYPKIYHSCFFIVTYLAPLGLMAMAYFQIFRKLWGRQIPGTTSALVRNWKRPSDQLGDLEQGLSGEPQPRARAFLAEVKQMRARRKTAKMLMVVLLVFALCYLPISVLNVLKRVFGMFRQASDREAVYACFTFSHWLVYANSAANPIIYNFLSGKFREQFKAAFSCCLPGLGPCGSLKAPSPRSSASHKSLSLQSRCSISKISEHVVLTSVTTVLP

On to `Cc1ccc(-c2ncccn2)c(C(=O)N2[C@@H]3CC[C@H]2[C@H](COc2ccccn2)C3)n1` (single isomer, unassigned) [Example 3A, (6-methyl-3-(pyrimidin-2-yl)pyridin-2-yl)((1S*,2R*,4R*)-2-((pyridin-2-yloxy)methyl)-7-azabicyclo[2.2.1]heptan-7-yl)methanone], for which the results for the inhibitory constant (Ki) in assay [1] (rOX1 Ki (nm)), in assay [2] (hOX1 Ki (nm)) and in assay [3] (hOX2 Ki (nm)) were 24 nM, 19 nM and 268 nM, respectively.

Consider `Cc1cnc(C(=O)N2C3CCC2C(Nc2cnc(C(F)(F)F)cn2)C3)c(-n2nccn2)c1` (racemic) [Example 184, (±)-(5-methyl-3-(2H-1,2,3-triazol-2-yl)pyridin-2-yl)(2-(5-(trifluoromethyl)pyrazin-2-yl)amino)-7-azabicyclo[2.2.1]heptan-7-yl)methanone], for which the Ki was found to be 189 nM in assay [1] (setting [4]), 349 nM in assay [2] (setting [5]) and 4100 nM in assay [3] (hOX2 Ki (nm)).

Consider `COc1ccc(C(=O)N2[C@@H]3CC[C@H]2[C@H](Nc2cnc(C(F)(F)F)cn2)C3)c(-n2nccn2)c1` [Example 241, (4-methoxy-2-(2H-1,2,3-triazol-2-yl)phenyl)((1S,2R,4R)-2-((5-(trifluoromethyl)pyrazin-2-yl)amino)-7-azabicyclo[2.2.1]heptan-7-yl)methanone], for which the Ki in assay [1] (setting [4]) worked out at 134 nM; in assay [2] (setting [5]), 159 nM; in assay [3] (setting [6]), 5060 nM.

As for `Cc1nc(C(=O)N2[C@@H]3CC[C@H]2[C@H](Nc2cnc(C(F)(F)F)cn2)C3)c(-c2ccc(F)cc2)s1` [Example 244, (5-(4-fluorophenyl)-2-methylthiazol-4-yl)((1S,2R,4R)-2-((5-(trifluoromethyl)pyrazin-2-yl)amino)-7-azabicyclo[2.2.1]heptan-7-yl)methanone], the inhibitory constant (Ki) in assay [1] (read-out: rOX1 Ki (nm)) was found to be 74 nM; in assay [2] (read-out: hOX1 Ki (nm)), 46 nM; in assay [3] (setting [6]), 235 nM.

`O=C(c1cc(F)ccc1-c1ncccn1)N1[C@@H]2CC[C@H]1[C@H](Nc1cnc(C(F)(F)F)cn1)C2` [Example 243, (5-fluoro-2-(pyrimidin-2-yl)phenyl)((1S,2R,4R)-2-((5-(trifluoromethyl)pyrazin-2-yl)amino)-7-azabicyclo[2.2.1]heptan-7-yl)methanone]: the Ki came to 34 nM in assay [1] (read-out: rOX1 Ki (nm)), 45 nM in assay [2] (read-out: hOX1 Ki (nm)) and 723 nM in assay [3] (setting [6]).

As to `Cc1cc(-c2ccc(C)nc2C(=O)N2C3CCC2C(COc2ccccn2)C3)on1` (racemic) [Example 94, (±)-(6-methyl-3-(3-methylisoxazol-5-yl)pyridin-2-yl)(2-((pyridin-2-yloxy)methyl)-7-azabicyclo[2.2.1]heptan-7-yl)methanone], the Ki in assay [1] (setting [4]) was determined as 170 nM; in assay [2] (setting [5]) it was 200 nM; in assay [3] (setting [6]), 2100 nM.

Take `O=C(c1c(F)cccc1-n1nccn1)N1[C@@H]2CC[C@H]1[C@H](Nc1cnc(C(F)(F)F)cn1)C2` [Example 258, (2-fluoro-6-(2H-1,2,3-triazol-2-yl)phenyl)((1S,2R,4R)-2-((5-(trifluoromethyl)pyrazin-2-yl)amino)-7-azabicyclo[2.2.1]heptan-7-yl)methanone]: the figures for the inhibition constant Ki in assay [1] (read-out: rOX1 Ki (nm)), in assay [2] (read-out: hOX1 Ki (nm)) and in assay [3] (setting [6]) were 42 nM, 48 nM and 690 nM, respectively.

Take `Cc1cccc(-n2nccn2)c1C(=O)N1C2CCC1C(COc1ccc(F)cn1)C2` (racemic) [Example 110, (±)-(2-(((5-fluoropyridin-2-yl)oxy)methyl)-7-azabicyclo[2.2.1]heptan-7-yl)(2-methyl-6-(2H-1,2,3-triazol-2-yl)phenyl)methanone]: the values for the Ki in assay [1] (setting [4]), in assay [2] (setting [5]) and in assay [3] (setting [6]) were 54 nM, 67 nM and 94 nM, respectively.

Take `Cc1ccc(-n2ccc(C)n2)c(C(=O)N2C3CCC2C(COc2ccc(F)cn2)C3)n1` (racemic) [Example 67, (±)-(2-(((5-fluoropyridin-2-yl)oxy)methyl)-7-azabicyclo[2.2.1]heptan-7-yl)(6-methyl-3-(3-methyl-1H-pyrazol-1-yl)pyridin-2-yl)methanone]: the Ki is 48 nM in assay [1] (setting [4]), 69 nM in assay [2] (setting [5]) and 258 nM in assay [3] (setting [6]).

For `O=C(c1ccc(F)cc1-c1ncccn1)N1[C@@H]2CC[C@H]1[C@H](Nc1ccc(C(F)(F)F)cn1)C2` [Example 280, (4-fluoro-2-(pyrimidin-2-yl)phenyl)((1S,2R,4R)-2-((5-(trifluoromethyl)pyridin-2-yl)amino)-7-azabicyclo[2.2.1]heptan-7-yl)methanone], the Ki came out at 39 nM in assay [1] (read-out: rOX1 Ki (nm)), 37 nM in assay [2] (read-out: hOX1 Ki (nm)) and 1300 nM in assay [3] (setting [6]).

For the molecule `CCOc1ncc(Br)cc1C(=O)N1C2CCC1C(COc1ccccn1)C2` (racemic) [Example 157, (±)-(5-bromo-2-ethoxypyridin-3-yl)(2-((pyridin-2-yloxy)methyl)-7-azabicyclo[2.2.1]heptan-7-yl)methanone], the results for the Ki in assay [1] (rOX1 Ki (nm)), in assay [2] (hOX1 Ki (nm)) and in assay [3] (setting [6]) were 94 nM, 134 nM and 537 nM, respectively.

As for `O=C(c1ccccc1-n1nccn1)N1C2CCC1C(Nc1ccc(C(F)(F)F)cn1)C2` (racemic) [Example 196, (±)-(2-(2H-1,2,3-triazol-2-yl)phenyl)(2-(5-(trifluoromethyl)pyridin-2-yl)amino)-7-azabicyclo[2.2.1]heptan-7-yl)methanone], the Ki in assay [1] (rOX1 Ki (nm)) stood at 59 nM; in assay [2] (hOX1 Ki (nm)), 61 nM; in assay [3] (setting [6]), 1500 nM.

For the molecule `Cc1ccc(-c2ncccn2)c(C(=O)N2C3CCC2C(Nc2ccc(C(F)(F)F)cn2)C3)n1` (racemic) [Example 195, (±)-(6-methyl-3-(pyrimidin-2-yl)pyridin-2-yl)(2-(5-(trifluoromethyl)pyridin-2-yl)amino)-7-azabicyclo[2.2.1]heptan-7-yl)methanone], the inhibition constant (Ki) in assay [1] (rOX1 Ki (nm)) was determined as 57 nM; in assay [2] (hOX1 Ki (nm)), 37 nM; in assay [3] (hOX2 Ki (nm)), 325 nM.

On to `Cc1ccc(-n2nccn2)c(C(=O)N2C3CCC2C(COc2ncccc2C)C3)n1` (racemic) [Example 55, (±)-(6-methyl-3-(2H-1,2,3-triazol-2-yl)pyridin-2-yl)(2-(((3-methylpyridin-2-yl)oxy)methyl)-7-azabicyclo[2.2.1]heptan-7-yl)methanone], for which the inhibition constant Ki in assay [1] (rOX1 Ki (nm)) was determined as 119 nM; in assay [2] (hOX1 Ki (nm)) it was 150 nM; in assay [3] (setting [6]), 202 nM.

With `Cc1cccc(C(=O)N2[C@@H]3CC[C@H]2[C@H](Nc2cnc(C(F)(F)F)cn2)C3)c1-c1cccnn1` [Example 263, (3-methyl-2-(pyridazin-3-yl)phenyl)((1S,2R,4R)-2-((5-(trifluoromethyl)pyrazin-2-yl)amino)-7-azabicyclo[2.2.1]heptan-7-yl)methanone], the Ki worked out at 44 nM in assay [1] (read-out: rOX1 Ki (nm)), 41 nM in assay [2] (read-out: hOX1 Ki (nm)) and 1100 nM in assay [3] (setting [6]).

Consider `Cc1ccc(-n2nccn2)c(C(=O)N2C3CCC2C(COc2cccnc2)C3)n1` (racemic) [Example 58, (±)-(6-methyl-3-(2H-1,2,3-triazol-2-yl)pyridin-2-yl)(2-((pyridin-3-yloxy)methyl)-7-azabicyclo[2.2.1]heptan-7-yl)methanone], for which the Ki amounted to 88 nM in assay [1] (rOX1 Ki (nm)), 117 nM in assay [2] (hOX1 Ki (nm)) and 2400 nM in assay [3] (setting [6]).

For `Cc1cccc(C(=O)N2[C@@H]3CC[C@H]2[C@H](Nc2ncc(C(F)(F)F)cn2)C3)c1-n1nccn1` [Example 272, (3-methyl-2-(2H-1,2,3-triazol-2-yl)phenyl)((1S,2R,4R)-2-((5-(trifluoromethyl)pyrimidin-2-yl)amino)-7-azabicyclo[2.2.1]heptan-7-yl)methanone], the Ki in assay [1] (read-out: rOX1 Ki (nm)) is 21 nM; in assay [2] (read-out: hOX1 Ki (nm)), 26 nM; in assay [3] (setting [6]), 742 nM.

With `Cc1cccc(OCC2CC3CCC2N3C(=O)c2nc(C)ccc2-n2nccn2)n1` (racemic) [Example 62, (±)-(6-methyl-3-(2H-1,2,3-triazol-2-yl)pyridin-2-yl)(2-(((6-methylpyridin-2-yl)oxy)methyl)-7-azabicyclo[2.2.1]heptan-7-yl)methanone], the Ki worked out at 74 nM in assay [1] (setting [4]), 46 nM in assay [2] (setting [5]) and 188 nM in assay [3] (hOX2 Ki (nm)).

Consider `COc1cccc(-n2nccn2)c1C(=O)N1C2CCC1C(COc1ccc(F)cn1)C2` (racemic) [Example 108, (±)-(2-(((5-fluoropyridin-2-yl)oxy)methyl)-7-azabicyclo[2.2.1]heptan-7-yl)(2-methoxy-6-(2H-1,2,3-triazol-2-yl)phenyl)methanone], for which the Ki was determined as 10 nM in assay [1] (setting [4]), 12 nM in assay [2] (setting [5]) and 12 nM in assay [3] (setting [6]).

`Cc1cc(-c2ccc(C)nc2C(=O)N2C3CCC2C(COc2ccc(F)cn2)C3)on1` (racemic) [Example 69, (±)-(2-(((5-fluoropyridin-2-yl)oxy)methyl)-7-azabicyclo[2.2.1]heptan-7-yl)(6-methyl-3-(3-methylisoxazol-5-yl)pyridin-2-yl)methanone]: the inhibition constant Ki came to 40 nM in assay [1] (rOX1 Ki (nm)), 64 nM in assay [2] (hOX1 Ki (nm)) and 174 nM in assay [3] (setting [6]).

`Cc1cccc(C(=O)N2C3CCC2C(COc2ccc(F)cn2)C3)c1-n1nccn1` (racemic) [Example 125, (±)-(2-(((5-fluoropyridin-2-yl)oxy)methyl)-7-azabicyclo[2.2.1]heptan-7-yl)(3-methyl-2-(2H-1,2,3-triazol-2-yl)phenyl)methanone]: the Ki in assay [1] (rOX1 Ki (nm)) was 47 nM; in assay [2] (hOX1 Ki (nm)) it was 29 nM; in assay [3] (setting [6]), 132 nM.

For the molecule `COc1ccc2cccnc2c1C(=O)N1C2CCC1C(COc1ccccn1)C2` (racemic) [Example 88, (±)-(7-methoxyquinolin-8-yl)(2-((pyridin-2-yloxy)methyl)-7-azabicyclo[2.2.1]heptan-7-yl)methanone], the Ki is 47 nM in assay [1] (setting [4]), 49 nM in assay [2] (setting [5]) and 690 nM in assay [3] (setting [6]).
